What all share (type): cell-based
In one data set the test system is sperm. In words: Sander Cramer sperm immobilization test. The protocol: The Sander Cramer test was used to determine the effect on sperm immobilization as described in Sander F V and Cramer S D., Hum. Fertil. 6: 134-153 (1941). This test may be used to evaluate the sperm-immobilizing effectiveness of contraceptive compositions. Serial dilutions of each test composition were added to semen adjusted to a designated number, e.g., 60 million of motile sperm per milliliter at room temperature (i.e., 25° C.). The end point is the greatest dilution at which all of the sperm are immobilized within 20 seconds. Results are expressed as minimum effective concentration in milligrams per milliliter.

In a further data set the test system is HIV-1 IIIB. Description: Viral entry inhibition, cell-free HIV-1 IIIB, CD4/coreceptor expressing HeLa cells. The conditions noted are these: Human immunodeficiency virus 1, IIIB.
The subject of a further data set is SIV. Description: SIV reverse transcriptase assay. How it is done: Reverse transcriptase activity, a measurement of virus replication, was measured in cell-free supernatants. Tritiated thymidine triphosphate (NEN) (TFP) was resuspended in distilled H2O at 5 Ci/mL. Poly rA and oligo dT were prepared as a stock solution which was kept at −20° C. The RT reaction buffer was prepared fresh on a daily basis and consisted of 125 μL 1.0 M EGTA, 125 μL dH2O, 110 μL 10% […], 50 μL 1.0 M Tris (pH 7.4), 50 μL 1.0 M DTT, and 40 μL 1.0 M MgCl2. These three solutions were mixed together in a ratio of 2 parts TTP, 1 part poly rA:oligo dT, and 1 part reaction buffer. Ten microliters (10 μL) of this reaction mixture was placed in a round bottom microtiter plate and 15 μL of virus containing supernatant added and mixed. The plate was incubated at 37° C. for 60 minutes. Following reaction, the reaction volume was spotted onto pieces of DE81 paper, washed 5 times for 5 minutes each in a 5% sodium phosphate buffer, 2 times for 1 minute each in distilled water, 2 times for 1 minute each in 70% ethanol, and then dried. Opti-Fluor 0 was added to each sample and incorporated radioactivity quantitated utilizing a Wallac 1450 Microbetaplus liquid scintillation counter. The results of this assay are provided herein.

Data set [1] relates to human vaginal cell line (VK2). How it is done:
Vaginal cytotoxicity was determined by 3-[4,5-dimethylthiazol-2-yl]-2,5-diphenyl tetrazolium bromide (MTT) assay and cytokine assays, both as described in Fichorova R. N. et al., J. Infect. Dis. 184(4): 418-28, 2001). The MTT assay assesses the cytotoxicity of various compounds against cell lines by plating the desired cells prior to exposure to the compounds. On the day of treatment, culture medium was carefully aspirated from the wells and replaced with fresh medium containing the test compound at various concentrations. The cells were incubated with the various compounds for 6 hours, washed with fresh medium and MTT was then added and the plates were incubated at 37° C. for a period of time sufficient to allow MTT to form formazan crystals by reacting with metabolically active cells. The formazan crystals were solubilized overnight at 37° C. in a solution containing 10% SDS in 0.01 M HCl. The absorbance of each well was measured in a microplate reader (Dynex) at 540 nm and a reference wavelength of 690 nm.

In another data set the test system is Lactobacillus gasseri. In words: Lactobacilli growth.

≈ marks a conversion by molar mass, not a printed value. Like-named read-outs stand apart in the source and are kept apart here.

The IC50 is the point on the concentration scale where inhibition reaches its midpoint. Consider `Cc1ccc(C(=O)Nc2ccc(S(=O)(=O)O)c3cc(S(=O)(=O)O)cc(S(=O)(=O)O)c23)cc1NC(=O)c1cccc(NC(=O)Nc2cccc(C(=O)Nc3cc(C(=O)Nc4ccc(S(=O)(=O)O)c5cc(S(=O)(=O)O)cc(S(=O)(=O)O)c45)ccc3C)c2)c1` [Suramin, 8,8′-(carbonylbis(imino-3,1-phenylenecarbonylimino(4-methyl-3,1-phenylene)carbonylimino))bis-1,3,5-naphthalene trisulfonic acid], for which the sperm-immobilizing activity entry in the data set with sperm (20 mg/mL) is recorded as “no significant sperm-immobilizing activity”. In addition, in the data set with sperm (10 and 5 mg/mL), the “sperm motility in Sander Cramer test” value is on record as “all spermatozoa from samples were motile”. Besides, the “Potency, Motility (Sander Cramer, Motility, CASA)” value with sperm (highest concentration = 25 mg/mL) is listed as “None”. Besides, the IC50 in the data set with HIV-1 IIIB (HeLa, 2 h-incubation, read-out: IC50 against IIIB, viral entry assay) was 18.5 µg/mL (≈ 14.3 µM); with HIV-1 IIIB (CD4/coreceptor expressing HeLa cells, incubation 2 hours, read-out: IC50, Cell-Free Strains IIIB) it was 18.5 µg/mL (≈ 14.3 µM); in the data set with SIV (Simian immunodeficiency virus) it was 4 µg/mL (≈ 3.08 µM). Moreover, the “Potency, SIV Reverse transcriptase” value in the data set on SIV was “High”. In addition, the “cytotoxicity in comparative study” value in data set [1] is given as “the least cytotoxic of them all”. In addition, the “effect on growth of Lactobacillus gasseri” value with Lactobacillus gasseri (5 mg/mL) is reported as “no inhibitory effect”. The “growth of Lactobacillus gasseri, % of control” value in the data set with Lactobacillus gasseri (5 mg/mL (highest concentration tested)) was 107 % of control. Also, the “Potency, Lactobacilli (Doubling time)” value in the data set with Lactobacillus gasseri (max. concentration tested = 5 mg/mL) was “None”.

These data come from patent publication US8552064B2, “Suramin and derivatives thereof as topical microbicide and contraceptive” (Eastern Virginia Medical School, priority 2005, dated 2013).
